{
  "source": "patent US20040219202A1",
  "about": "“Pharmaceutical composition comprising lipids comprising a polar and a nonpolar moiety” (priority 2001, published 2004)",
  "key": {"[1]": {"assay": "Net charge of cationic lipid", "assay_type": "physicochemical", "details": "pH 7.4", "excerpt": "The monoacetylenic analogues of DOPC, DOPE, DODAP and DOTAP were synthesised as described above. Standard lipids for comparisons (DOPC, DOPE and DOTAP (chloride salt)) were purchased from Sigma-Aldrich, Poole, Dorset, UK. Our invention the cationic, cholesterol-based lipid N^1-cholesteryloxycarbonyl-3,7-diazanononane-1,9-diamine (CDAN)—net charge=+1.6 at pH 7.4.CDAN (below) was synthesised by our group previously,^22 and is now available in a 1:1 molar ratio formulation with DOPE as Trojene™ (Avanti Polar Lipids, Inc., Alabaster, Ala., USA). [drawing 40]"}, "C. tomentosicollis eggs": {"test_system": "C. tomentosicollis eggs", "details": "cited from earlier work"}, "DNA": {"target": "DNA", "details": "read-out: apparent DNA dissociation constant; cited from earlier work"}, "DNA topoisomerase I": {"target": "T1, DNA topoisomerase I (Homo sapiens, UniProt P11387)", "T1 sequence (P11387 1-765)": "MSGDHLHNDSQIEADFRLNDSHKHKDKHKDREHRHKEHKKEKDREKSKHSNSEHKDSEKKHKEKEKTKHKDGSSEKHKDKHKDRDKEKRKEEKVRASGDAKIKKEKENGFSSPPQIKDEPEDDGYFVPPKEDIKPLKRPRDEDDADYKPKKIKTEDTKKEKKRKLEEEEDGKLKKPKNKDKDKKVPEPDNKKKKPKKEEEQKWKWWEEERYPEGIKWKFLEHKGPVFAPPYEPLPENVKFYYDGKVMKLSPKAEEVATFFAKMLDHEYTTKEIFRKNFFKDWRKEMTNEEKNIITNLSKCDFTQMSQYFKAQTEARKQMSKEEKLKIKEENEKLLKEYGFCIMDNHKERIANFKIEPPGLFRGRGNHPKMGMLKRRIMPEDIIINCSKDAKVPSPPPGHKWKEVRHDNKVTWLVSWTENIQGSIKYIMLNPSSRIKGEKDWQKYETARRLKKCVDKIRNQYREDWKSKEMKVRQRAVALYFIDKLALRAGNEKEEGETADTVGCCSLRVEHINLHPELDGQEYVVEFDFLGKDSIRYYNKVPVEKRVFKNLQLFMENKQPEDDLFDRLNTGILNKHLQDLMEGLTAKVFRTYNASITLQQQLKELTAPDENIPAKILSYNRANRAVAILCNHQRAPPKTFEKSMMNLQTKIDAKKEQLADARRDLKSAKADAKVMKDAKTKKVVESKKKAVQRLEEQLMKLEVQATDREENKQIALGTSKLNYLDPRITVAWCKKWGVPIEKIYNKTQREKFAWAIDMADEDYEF", "details": "cited from earlier work"}, "DNA polymerase α": {"target": "T2, DNA polymerase α (Homo sapiens, UniProt P09884)", "T2 sequence (P09884 1-1462)": "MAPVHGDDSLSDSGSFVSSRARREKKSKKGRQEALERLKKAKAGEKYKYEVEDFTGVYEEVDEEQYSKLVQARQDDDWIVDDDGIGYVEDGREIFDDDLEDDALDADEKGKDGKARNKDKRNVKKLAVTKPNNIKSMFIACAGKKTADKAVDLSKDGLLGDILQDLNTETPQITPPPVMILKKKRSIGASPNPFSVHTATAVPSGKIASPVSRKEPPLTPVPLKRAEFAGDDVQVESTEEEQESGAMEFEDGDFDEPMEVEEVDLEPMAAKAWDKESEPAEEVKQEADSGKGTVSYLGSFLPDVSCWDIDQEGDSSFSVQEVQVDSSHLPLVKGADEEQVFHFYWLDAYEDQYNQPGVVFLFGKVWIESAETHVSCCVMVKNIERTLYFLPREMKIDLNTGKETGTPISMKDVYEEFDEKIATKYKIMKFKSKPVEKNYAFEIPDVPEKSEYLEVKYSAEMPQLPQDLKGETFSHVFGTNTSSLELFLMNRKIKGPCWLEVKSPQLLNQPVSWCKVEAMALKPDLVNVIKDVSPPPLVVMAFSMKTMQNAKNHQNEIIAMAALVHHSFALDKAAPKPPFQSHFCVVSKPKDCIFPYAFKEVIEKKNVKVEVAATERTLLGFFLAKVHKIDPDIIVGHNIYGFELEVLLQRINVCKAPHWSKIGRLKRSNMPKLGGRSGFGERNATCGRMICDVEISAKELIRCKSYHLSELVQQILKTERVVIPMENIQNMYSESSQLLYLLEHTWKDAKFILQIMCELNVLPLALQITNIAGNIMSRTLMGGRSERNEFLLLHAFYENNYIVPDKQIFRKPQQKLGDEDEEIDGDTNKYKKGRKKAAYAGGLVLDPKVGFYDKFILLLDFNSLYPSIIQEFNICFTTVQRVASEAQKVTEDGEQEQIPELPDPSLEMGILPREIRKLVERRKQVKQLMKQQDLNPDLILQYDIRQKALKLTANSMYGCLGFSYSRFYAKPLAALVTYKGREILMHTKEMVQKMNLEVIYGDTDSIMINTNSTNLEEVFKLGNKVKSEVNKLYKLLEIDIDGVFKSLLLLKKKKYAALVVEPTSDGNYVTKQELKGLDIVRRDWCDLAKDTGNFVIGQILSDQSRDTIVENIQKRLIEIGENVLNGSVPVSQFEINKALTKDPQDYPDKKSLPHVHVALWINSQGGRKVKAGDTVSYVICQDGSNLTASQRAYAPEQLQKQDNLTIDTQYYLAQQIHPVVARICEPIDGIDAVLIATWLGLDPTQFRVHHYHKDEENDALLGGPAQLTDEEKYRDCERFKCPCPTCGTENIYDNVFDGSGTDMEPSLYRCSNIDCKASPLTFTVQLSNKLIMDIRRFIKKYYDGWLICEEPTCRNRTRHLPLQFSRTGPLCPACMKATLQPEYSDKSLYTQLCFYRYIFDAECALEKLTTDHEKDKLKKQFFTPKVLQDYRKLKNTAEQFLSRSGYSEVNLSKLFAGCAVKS", "details": "cited from earlier work"}, "[2]": {"target": "T3, Cytochrome P4504A4 (CYP4A4) (Oryctolagus cuniculus, UniProt P10611)", "T3 sequence (P10611 5-510)": "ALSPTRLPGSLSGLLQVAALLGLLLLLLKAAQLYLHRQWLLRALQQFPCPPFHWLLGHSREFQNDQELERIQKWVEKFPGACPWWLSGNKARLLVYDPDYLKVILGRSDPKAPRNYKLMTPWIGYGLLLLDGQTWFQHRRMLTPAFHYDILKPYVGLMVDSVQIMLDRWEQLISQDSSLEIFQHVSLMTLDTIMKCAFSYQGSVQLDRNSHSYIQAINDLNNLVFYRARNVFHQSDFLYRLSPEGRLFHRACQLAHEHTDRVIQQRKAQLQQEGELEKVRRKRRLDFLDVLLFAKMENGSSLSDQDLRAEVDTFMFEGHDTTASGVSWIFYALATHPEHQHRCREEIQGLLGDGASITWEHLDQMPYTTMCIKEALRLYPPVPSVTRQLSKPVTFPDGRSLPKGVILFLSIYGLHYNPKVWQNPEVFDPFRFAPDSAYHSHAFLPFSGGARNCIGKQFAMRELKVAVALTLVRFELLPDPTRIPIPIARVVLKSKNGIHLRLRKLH", "details": "cited from earlier work"}, "cytochrome P4504A1": {"target": "T4, cytochrome P4504A1 (Rattus norvegicus, UniProt P08516)", "T4 sequence (P08516 1-509)": "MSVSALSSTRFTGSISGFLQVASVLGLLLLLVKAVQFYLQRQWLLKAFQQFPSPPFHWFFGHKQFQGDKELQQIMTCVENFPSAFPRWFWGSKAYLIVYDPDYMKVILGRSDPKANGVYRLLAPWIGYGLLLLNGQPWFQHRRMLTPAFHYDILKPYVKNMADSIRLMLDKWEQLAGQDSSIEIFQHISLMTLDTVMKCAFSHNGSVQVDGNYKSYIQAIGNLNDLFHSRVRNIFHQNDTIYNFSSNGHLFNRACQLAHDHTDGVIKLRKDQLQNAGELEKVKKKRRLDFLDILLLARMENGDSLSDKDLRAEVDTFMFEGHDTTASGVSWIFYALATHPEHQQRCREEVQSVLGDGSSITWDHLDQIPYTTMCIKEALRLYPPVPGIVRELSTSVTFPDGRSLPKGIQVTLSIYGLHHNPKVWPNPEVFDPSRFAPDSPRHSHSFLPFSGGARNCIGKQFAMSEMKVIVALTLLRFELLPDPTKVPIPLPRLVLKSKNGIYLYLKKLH", "details": "cited from earlier work"}, "[3]": {"test_system": "ethanolamine-specific phospholipid base exchange reaction", "details": "rat liver microsomes; cited from earlier work"}, "[4]": {"test_system": "hepatic glutathione S-transferases", "details": "cited from earlier work"}, "5-lipoxygenase": {"target": "T5, 5-lipoxygenase (Homo sapiens, UniProt P09917)", "T5 sequence (P09917 1-674)": "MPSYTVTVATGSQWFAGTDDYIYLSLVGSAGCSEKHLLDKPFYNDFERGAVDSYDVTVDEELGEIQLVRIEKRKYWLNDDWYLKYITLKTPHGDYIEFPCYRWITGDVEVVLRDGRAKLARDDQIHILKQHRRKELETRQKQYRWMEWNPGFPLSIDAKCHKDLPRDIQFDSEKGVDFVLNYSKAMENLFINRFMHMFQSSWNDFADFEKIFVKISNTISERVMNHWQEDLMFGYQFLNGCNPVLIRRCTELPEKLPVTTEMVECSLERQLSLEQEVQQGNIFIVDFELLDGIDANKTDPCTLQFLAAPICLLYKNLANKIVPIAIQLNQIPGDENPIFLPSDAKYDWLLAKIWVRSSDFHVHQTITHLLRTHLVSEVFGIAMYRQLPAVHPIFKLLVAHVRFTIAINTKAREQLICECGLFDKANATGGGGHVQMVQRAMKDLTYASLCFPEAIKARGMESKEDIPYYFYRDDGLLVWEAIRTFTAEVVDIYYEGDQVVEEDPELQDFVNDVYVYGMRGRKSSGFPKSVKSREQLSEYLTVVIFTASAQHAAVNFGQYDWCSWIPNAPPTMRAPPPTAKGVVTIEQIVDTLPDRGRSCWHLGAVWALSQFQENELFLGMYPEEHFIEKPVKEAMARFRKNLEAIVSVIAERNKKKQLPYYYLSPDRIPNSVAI", "details": "cited from earlier work"}, "cyclo-oxygenase": {"test_system": "cyclo-oxygenase", "details": "cited from earlier work"}, "Fe(III)-LOX": {"test_system": "Fe(III)-LOX", "details": "cited from earlier work"}},
  "data": [
    {"smiles": "CC(C)CCC[C@@H](C)[C@H]1CC[C@H]2[C@@H]3CC=C4C[C@@H](OC(=O)NCCNCCCNCCN)CC[C@]4(C)[C@H]3CC[C@]12C", "note": "[CDAN, N^1-cholesteryloxycarbonyl-3,7-diazanononane-1,9-diamine]", "values": [
      {"measurement": "net charge", "setting": "[1]", "result": "+1.6"}
    ]},
    {"smiles": "CCCCCCCCCCCCC#CCCCC(=O)O", "note": "[Octadeca-5-ynoic acid]", "values": [
      {"measurement": "Hatching of C. tomentosicollis eggs", "setting": "C. tomentosicollis eggs", "result": "inhibits the hatching"}
    ]},
    {"smiles": "CCCCCCCCC#CCCCCCCCC(=O)O", "note": "[Octadeca-9-ynoic acid, octadeca-9-ynoic acid]", "values": [
      {"measurement": "Kd", "setting": "DNA", "result": 1800, "unit": "µM"},
      {"measurement": "DNA topoisomerase I-mediated relaxation of a supercoiled plasmid DNA", "setting": "DNA topoisomerase I", "result": "does not inhibit"},
      {"measurement": "topisomerase I-mediated DNA filter binding", "setting": "DNA topoisomerase I", "result": "inhibits"},
      {"measurement": "Inhibition of DNA polymerase α", "setting": "DNA polymerase α", "result": "weakly inhibitory"}
    ]},
    {"smiles": "C#CCCCCCCCCCCCCCCCC(=O)O", "note": "[Octadeca-17-ynoic acid]", "values": [
      {"measurement": "Inhibition of the substrate-binding pocket of CYP4A4", "setting": "[2]", "result": "effective inhibitor"}
    ]},
    {"smiles": "C#CCCCCCCCCC(=O)O", "note": "[Undeca-10-ynoic acid]", "values": [
      {"measurement": "Inhibition of cytochrome P4504A1", "setting": "cytochrome P4504A1", "result": "inhibitor"},
      {"measurement": "Ethanolamine-specific phospholipid base exchange reaction", "setting": "[3]", "result": "inhibits"}
    ]},
    {"smiles": "CCCCCCCCC#CCC#CCC#CCCCC(=O)O", "note": "[eicosa-5,8,11-triynoic acid]", "values": [
      {"measurement": "Inhibition of mammalian hepatic glutathione S-transferases", "setting": "[4]", "result": "inhibits"}
    ]},
    {"smiles": "CCCCCC#CC#CC#CCCCCCCC(=O)O", "note": "[octadeca-8,10,12-triynoic acid]", "values": [
      {"measurement": "Inhibition of 5-lipoxygenase", "setting": "5-lipoxygenase", "result": "weak inhibitors"},
      {"measurement": "Inhibition of cyclo-oxygenase", "setting": "cyclo-oxygenase", "result": "potent inhibitors"}
    ]},
    {"smiles": "CCCCCC#CCC#CCCCCCCCC(=O)O", "note": "[octadeca-9,12-diynoic acid]", "values": [
      {"measurement": "Inactivation of Fe(III)-LOX", "setting": "Fe(III)-LOX", "result": "irreversibly inactivates"}
    ]}
  ]
}
